Laboratory results reported in patent US20150218172A1, “Pyrrolo[2,3-D]Pyrimidine Tropomyosin-Related Kinase Inhibitors” (PFIZER LIMITED, priority 2012, published 2015).

biological target: T1, TrkA (Homo sapiens, UniProt P04629); assay: Isolated TRK enzyme assay (HTRF KinEASE-TK kit), PV3144 TrkA enzyme assay; type: biochemical; details: PV3144 TrkA enzyme assay, recombinant His-tagged cytoplasmic domain aa 441-796, 4 nM enzyme, 40 uM ATP; arithmetic mean where more than one reading; read-out: Trka enzyme (IC50)
T1 construct: aa 441-796; His; purchased Invitrogen PV3144
Experimental: Isolated TRK Enzyme assays use the HTRF KinEASE-TK kit (Cisbio Cat#62TK0PEJ) with recombinant His-tagged cytoplasmic domains of each TRK receptor sourced from Invitrogen (see table below). This activity-assay measures the phosphorylation of tyrosine residues within a substrate from the HTRF kit which has been validated by Cisbio for a variety of tyrosine kinases including the TRK receptors.
0.5 mM stock solutions of test compounds are prepared and serially diluted in 100% DMSO. A standard curve using the compound of Example 135 disclosed in WO2005/116035 of 150 uM is also prepared on each test plate. High percentage effect (HPE) is defined by 150 uM (using the compound of Example 135 as disclosed in WO2005/116035) and 0% effect (ZPE) is defined by 100% DMSO. Greiner low volume black plates containing 0.2 ul of serially diluted compound, standard and HPE/ZPE are created using the Bravo nanolitre dispenser.
1X enzyme buffer is prepared from 5X Enzymatic Buffer from the Cisbio KinEASE TK kit using MilliQ water. The buffer is then supplemented with 10 mM MgCl and 2 mM DTT (both from Sigma). In the case of TRKB, the buffer is also supplemented with 125 nM Supplement Enzymatic Buffer (SEB) from the Cisbio kit.
2X FAC of enzyme and 2X FAC ATP diluted in 1X complete enzyme buffer is incubated at room temperature for 20 minutes to preactivate the enzyme. Following this preactivation step, 5 ul/well of enzyme+ATP mix is added using a Multidrop Micro to the assay plate, spotted with 0.2 ul 100% DMSO compound. This is left for 20 mins at room temperature before adding 5 ul of 2 uM TK-substrate-Biotin (from the Cisbio kit) diluted in 1X enzyme buffer (1 uM FAC) using the Multidrop Micro. The reaction is incubated at room temperature for the optimized assay reaction time (see table). The reaction is stopped by adding 10 ul/well HTRF Detection Buffer containing 0.25 uM Streptavidin-XL665 (0.125 uM FAC) and 1:200 TK Antibody-Cryptate using a Multidrop.
After the Detection Reagent addition, plates are covered and incubated at room temperature for 60 minutes. HTRF signal is read using an Envision reader, measured as a ratio of emissions at two different wavelengths, 620 nm and 665 nm. […] Test compound data are expressed as percentage inhibition defined by HPE and ZPE values for each plate. Percentage inhibition in the presence of test compound is plotted against compound concentration on a log scale to determine an IC50 from the resultant sigmoid curve.
Below are TrkA IC50 data generated using the PV3144 TrkA enzyme assay. Where more than one reading was taken, the arithmetic mean is presented.

T1 sequence (P04629 441-796): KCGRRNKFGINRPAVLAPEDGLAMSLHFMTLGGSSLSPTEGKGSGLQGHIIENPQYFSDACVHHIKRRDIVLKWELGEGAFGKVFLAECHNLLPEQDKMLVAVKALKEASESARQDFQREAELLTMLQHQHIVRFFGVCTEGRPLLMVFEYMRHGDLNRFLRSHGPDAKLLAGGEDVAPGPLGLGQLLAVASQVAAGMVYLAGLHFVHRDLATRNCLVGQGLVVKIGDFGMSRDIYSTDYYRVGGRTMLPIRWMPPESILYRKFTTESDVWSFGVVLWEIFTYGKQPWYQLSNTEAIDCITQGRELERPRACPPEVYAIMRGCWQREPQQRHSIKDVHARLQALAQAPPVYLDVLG

IC50 | Molecule
11.1 nM | CC(C)(CO)n1cc(C(=O)c2ccc(C#N)c(NC(=O)Cc3ccc(Cl)cc3)c2)c2cnc(N)nc21 [Example 9, N-(5-{[2-amino-7-(1-hydroxy-2-methylpropan-2-yl)-7H-pyrrolo[2,3-d]pyrimidin-5-yl]carbonyl}-2-cyanophenyl)-2-(4-chlorophenyl)acetamide]
467 nM | CC(CO)(CO)n1cc(C(=O)c2cc(NC(=O)Cc3ccc(C#N)cc3)ccn2)c2cncnc21 [Example 107, 2-(4-cyanophenyl)-N-(2-{[7-(1,3-dihydroxy-2-methylpropan-2-yl)-7H-pyrrolo[2,3-d]pyrimidin-5-yl]carbonyl}pyridin-4-yl)acetamide]
99.8 nM | CC1(n2cc(C(=O)c3cc(NC(=O)Cc4ccc(C(F)(F)F)c(F)c4)ccn3)c3cncnc32)COC1 [Example 170, 2-[3-fluoro-4-(trifluoromethyl)phenyl]-N-(2-{[7-(3-methyloxetan-3-yl)-7H-pyrrolo[2,3-d]pyrimidin-5-yl]carbonyl}pyridin-4-yl)acetamide]
430 nM | O=C(Cc1ccc(Cl)c(Cl)c1)Nc1ccnc(C(=O)c2cn(C(CO)CO)c3ncncc23)c1 [Example 99, 2-(3,4-dichlorophenyl)-N-(2-{[7-(1,3-dihydroxypropan-2-yl)-7H-pyrrolo[2,3-d]pyrimidin-5-yl]carbonyl}pyridin-4-yl)acetamide]
150 nM | N-(2-{[7-(propan-2-yl)-7H-pyrrolo[2,3-d]pyrimidin-5-yl]carbonyl}pyridin-4-yl)-2-[4-(trifluoromethyl)-1H-1,2,3-triazol-1-yl]acetamide [Example 80]
246 nM | O=C(Cc1cccc(Cl)c1)Nc1cc(C(=O)c2cn(CCO)c3ncncc23)ccn1 [Example 146, 2-(3-chlorophenyl)-N-(4-{[7-(2-hydroxyethyl)-7H-pyrrolo[2,3-d]pyrimidin-5-yl]carbonyl}pyridin-2-yl)acetamide]
306 nM | Cc1cc(C(=O)c2cn(C(C)C)c3ncncc23)cc(NC(=O)Cc2ccccc2)n1 [Example 75, N-(6-methyl-4-{[7-(propan-2-yl)-7H-pyrrolo[2,3-d]pyrimidin-5-yl]carbonyl}pyridin-2-yl)-2-phenylacetamide]
27.1 nM | Cc1cc(C(F)(F)F)nn1CC(=O)Nc1ccnc(C(=O)c2cn(C(C)C)c3nc(N)ncc23)c1 [Example 84, N-(2-{[2-amino-7-(propan-2-yl)-7H-pyrrolo[2,3-d]pyrimidin-5-yl]carbonyl}pyridin-4-yl)-2-[5-methyl-3-(trifluoromethyl)-1H-pyrazol-1-yl]acetamide]
268 nM | N#Cc1ccc(CC(=O)Nc2cc(C(=O)c3cn(CCO)c4ncncc34)ccn2)cc1 [Example 143, 2-(4-cyanophenyl)-N-(4-{[7-(2-hydroxyethyl)-7H-pyrrolo[2,3-d]pyrimidin-5-yl]carbonyl}pyridin-2-yl)acetamide]
484 nM | O=C(Cc1ccc(F)cc1)Nc1cc(C(=O)c2cn(CCO)c3ncncc23)ccn1 [Example 145, 2-(4-fluorophenyl)-N-(4-{[7-(2-hydroxyethyl)-7H-pyrrolo[2,3-d]pyrimidin-5-yl]carbonyl}pyridin-2-yl)acetamide]
18.6 nM | CC(C)n1cc(C(=O)c2ccnc(NC(=O)Cc3ccc(OC(F)(F)F)cc3)c2)c2cncnc21 [Example 120, N-(4-{[7-(propan-2-yl)-7H-pyrrolo[2,3-d]pyrimidin-5-yl]carbonyl}pyridin-2-yl)-2-[4-(trifluoromethoxy)phenyl]acetamide]
230 nM | C[C@@H](CO)n1cc(C(=O)c2cc(NC(=O)Cc3ccc(Cl)cn3)ccn2)c2cncnc21 [Example 13, 2-(5-chloropyridin-2-yl)-N-[2-({7-[(2S)-1-hydroxypropan-2-yl]-7H-pyrrolo[2,3-d]pyrimidin-5-yl}carbonyl)pyridin-4-yl]acetamide]
146 nM | O=C(Cc1ccc(Cl)cc1Cl)Nc1ccnc(C(=O)c2cn(C(CO)CO)c3ncncc23)c1 [Example 95, 2-(2,4-dichlorophenyl)-N-(2-{[7-(1,3-dihydroxypropan-2-yl)-7H-pyrrolo[2,3-d]pyrimidin-5-yl]carbonyl}pyridin-4-yl)acetamide]
9.61 nM | CC(C)(C)n1cc(C(=O)c2cc(NC(=O)Cc3cccc(S(C)(=O)=O)c3)ccn2)c2cncnc21 [Example 38, N-{2-[(7-tert-butyl-7H-pyrrolo[2,3-d]pyrimidin-5-yl)carbonyl]pyridin-4-yl}-2-[3-(methylsulfonyl)phenyl]acetamide]
136 nM | CC(C)n1cc(C(=O)c2cc(NC(=O)Cc3ccc(C#N)cn3)ccn2)c2cnc(N)nc21 [Example 63, N-(2-{[2-amino-7-(propan-2-yl)-7H-pyrrolo[2,3-d]pyrimidin-5-yl]carbonyl}pyridin-4-yl)-2-(5-cyanopyridin-2-yl)acetamide]
1040 nM | COc1cc(C(=O)c2cn(C(C)C)c3ncncc23)cc(NC(=O)Cc2ccc(C#N)cc2)n1 [Example 165, 2-(4-cyanophenyl)-N-(6-methoxy-4-{[7-(propan-2-yl)-7H-pyrrolo[2,3-d]pyrimidin-5-yl]carbonyl}pyridin-2-yl)acetamide]
126 nM | O=C(Cc1ccc(Cl)cc1)Nc1cc(C(=O)c2cn(CC3(CO)COC3)c3ncncc23)ccn1 [Example 115, 2-(4-Chlorophenyl)-N-{4-[(7-{[3-(hydroxymethyl)oxetan-3-yl]methyl}-7H-pyrrolo[2,3-d]pyrimidin-5-yl)carbonyl}pyridin-2-yl]acetamide]
79.1 nM | C[C@H](CO)n1cc(C(=O)c2cc(NC(=O)Cc3ccc(C#N)cc3)ccn2)c2cncnc21 [Example 23, 2-(4-cyanophenyl)-N-[2-({7-[(2R)-1-hydroxypropan-2-yl]-7H-pyrrolo[2,3-d]pyrimidin-5-yl}carbonyl)pyridin-4-yl]acetamide]
3620 nM | CC(C)n1cc(C(=O)c2ccnc(NC(=O)Cc3ccccn3)c2)c2cncnc21 [Example 163, N-(4-{[7-(propan-2-yl)-7H-pyrrolo[2,3-d]pyrimidin-5-yl]carbonyl}pyridin-2-yl)-2-(pyridin-2-yl)acetamide]
1230 nM | Cc1ccn(CC(=O)Nc2cc(C(=O)c3cn(CCO)c4ncncc34)ccn2)n1 [Example 128, N-(4-{[7-(2-hydroxyethyl)-7H-pyrrolo[2,3-d]pyrimidin-5-yl]carbonyl}pyridin-2-yl)-2-(3-methyl-1H-pyrazol-1-yl)acetamide]
59.5 nM | C[C@H](CO)n1cc(C(=O)c2cc(NC(=O)Cc3ccc(C(F)(F)F)cc3)ccn2)c2cncnc21 [Example 22, N-[2-({7-[(2R)-1-hydroxypropan-2-yl]-7H-pyrrolo[2,3-d]pyrimidin-5-yl}carbonyl)pyridin-4-yl]-2-[4-(trifluoromethyl)phenyl]acetamide]
97.6 nM | C[C@H](CO)n1cc(C(=O)c2cc(NC(=O)Cc3cccc(C(F)(F)F)c3)ccn2)c2cncnc21 [Example 19, N-[2-({7-[(2R)-1-hydroxypropan-2-yl]-7H-pyrrolo[2,3-d]pyrimidin-5-yl}carbonyl)pyridin-4-yl]-2-[3-(trifluoromethyl)phenyl]acetamide]
1750 nM | Cc1ccnn1CC(=O)Nc1cc(C(=O)c2cn(CCO)c3ncncc23)ccn1 [Example 130, N-(4-{[7-(2-hydroxyethyl)-7H-pyrrolo[2,3-d]pyrimidin-5-yl]carbonyl}pyridin-2-yl)-2-(5-methyl-1H-pyrazol-1-yl)acetamide]
363 nM | C[C@H](CO)n1cc(C(=O)c2cc(NC(=O)Cc3ccc(Cl)cn3)ccn2)c2cncnc21 [Example 25, 2-(5-chloropyridin-2-yl)-N-[2-({7-[(2R)-1-hydroxypropan-2-yl]-7H-pyrrolo[2,3-d]pyrimidin-5-yl}carbonyl)pyridin-4-yl]acetamide]
9800 nM | Cc1nccn1CC(=O)Nc1cc(C(=O)c2cn(C(C)C)c3ncncc23)ccn1 [Example 162, 2-(2-methyl-1H-imidazol-1-yl)-N-(4-{[7-(propan-2-yl)-7H-pyrrolo[2,3-d]pyrimidin-5-yl]carbonyl}pyridin-2-yl)acetamide]
20.9 nM | CC(C)n1cc(C(=O)c2ccnc(NC(=O)Cc3ccc(Cl)cn3)c2)c2cncnc21 [Example 74, 2-(5-chloropyridin-2-yl)-N-(4-{[7-(propan-2-yl)-7H-pyrrolo[2,3-d]pyrimidin-5-yl]carbonyl}pyridin-2-yl)acetamide]
85.3 nM | CC(C)n1cc(C(=O)c2ccnc(NC(=O)Cc3ccc(Cl)cc3)c2)c2cncnc21 [Example 150, 2-(4-chlorophenyl)-N-(4-{[7-(propan-2-yl)-7H-pyrrolo[2,3-d]pyrimidin-5-yl]carbonyl}pyridin-2-yl)acetamide]
